Here are results for three molecules from patent publication US11865095B2, “Combination drug substance of polyamine transport inhibitor and DFMO” (Aminex Therapeutics, Inc., priority 2020, dated 2024).

Read-outs that look alike come from different tables or passages of the source.

The nature of data set [1]: bioavailability / Biopharmaceutics Classification System class.
A short description of data set [2]: First-in-human clinical trial NCT03536728 Part 1: plasma pharmacokinetics and tolerability of oral AMXT 1501 dicaprate and DFMO.
Another data set can be described thus: clinical. Particulars: human, in vivo, po.
For the next data set, the system named is cancer cells. Put plainly: in vitro EC50 against cancer cells. It is filed as cell-based.
For data set [3] the following is noted: mouse, in vivo.
A short description of another data set: in vivo. The following applies: BALB/c, mouse, tumor, subcutaneous, 2.5 mg/kg.
The nature of the next data set: water solubility. It is filed as physicochemical.

Consider `CCCCCCCCCC(=O)O.CCCCCCCCCC(=O)O.CCCCCCCCCCCCCCCC(=O)NCCCC[C@@H](N)C(=O)NCCCNCCCCNCCCN` [AMXT 1501 dicaprate], for which the bioavailability result in data set [1] is “low”.

Turning to `CCCCCCCCCCCCCCCC(=O)NCCCC[C@@H](N)C(=O)NCCCNCCCCNCCCN` [AMXT 1501, D-lys(palmitoyl)-spermine], the “duration of plasma levels” value in data set [2] (Cohort 5, over the 24-hour dosing time increment) was “sustained over the 24-hour dosing time increment”. For the same molecule, in data set [2] (Part 1 patients, mainly gastrointestinal (nausea and diarrhea)), the “adverse effects observed in patients” value was “modest Grades 1 and 2 adverse effects”. In addition, the Cmax in data set [2] (human, in vivo) is under 1000 ng/mL; in the data set “clinical”, 794 ng/mL. Moreover, the “mean AMXT 1501 exposure versus dose” value in data set [2] (single or repeat PO dosing, dose levels of 160 mg AMXT 1501 and higher) was “increased in a dose-dependent manner”. Besides, the EC50 was 0.028 µg/mL in the data set on cancer cells (equivalent of 50 nM, read-out: plasma concentration equivalent to in vitro EC50) and 50 nM in the data set on cancer cells (read-out: in vitro EC50 against cancer cells). In data set [3], the “AMXT 1501 tumor AUC” value is listed as 152,000 hr*ng/mL. This molecule came in with a Kp in the data set “in vivo” of 14.

Consider `NCCCC(N)(C(=O)O)C(F)F` (centres unmarked) [DFMO, difluoromethylornithine], for which the water solubility result in “water solubility” is on record as “high”.
